Experimental data published in US8889667B2 (Agios Pharmaceuticals, Inc, priority 2010, dated 2014).

Target: PKM2 (Homo sapiens, UniProt P14618)
Assay: PKM2 Assay (activation, LDH-coupled, absorbance at 340 nm)
Assay type: biochemical
Summary of the method: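 Human PKM2 (50 ng/well) was preincubated with compound and coupling mix for 30 min at 4 °C without ADP. Reactions were then started with ADP (0.7 mM) alongside PEP 0.15 mM, NADH 180 μM and LDH, in Tris pH 7.5/KCl/MgCl2/DTT/BSA buffer. A340 was followed at 25 °C and activation reported as AC50.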

Sequence of PKM2 (P14618 whole entry): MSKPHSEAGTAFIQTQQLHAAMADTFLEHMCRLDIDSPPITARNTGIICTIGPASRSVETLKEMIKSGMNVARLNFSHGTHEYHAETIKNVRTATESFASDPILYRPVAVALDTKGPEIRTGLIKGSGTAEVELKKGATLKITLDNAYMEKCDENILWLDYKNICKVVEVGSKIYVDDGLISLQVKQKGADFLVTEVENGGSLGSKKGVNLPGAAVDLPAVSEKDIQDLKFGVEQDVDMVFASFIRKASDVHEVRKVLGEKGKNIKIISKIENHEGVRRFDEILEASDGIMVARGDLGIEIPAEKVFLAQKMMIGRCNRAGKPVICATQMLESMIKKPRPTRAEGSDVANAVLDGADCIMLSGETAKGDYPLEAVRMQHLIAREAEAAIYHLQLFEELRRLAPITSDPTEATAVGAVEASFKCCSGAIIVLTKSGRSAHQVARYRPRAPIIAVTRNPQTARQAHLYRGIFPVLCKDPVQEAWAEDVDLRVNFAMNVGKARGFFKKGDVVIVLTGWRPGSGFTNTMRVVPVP

AC50 (Table 4) [nM]	AC50 (Table 5) [nM]	Structure (SMILES)
500 to 1000		C[C@H]1CN(Cc2c(F)cc(F)cc2F)CCN1C(=O)c1ccc(NS(=O)(=O)c2cccc3cccnc23)cc1Cl [Compound 188, (S)—N-(3-chloro-4-(2-methyl-4-(2,4,6-trifluorobenzyl)piperazine-1-carbonyl)phenyl)quinoline-8-sulfonamide]
	100 to 500	COc1cc(C(=O)N2CCN(C(=O)Oc3ccccn3)CC2)ccc1NS(=O)(=O)c1cccc2cccnc12 [Compound 315, Pyridin-2-yl 4-(3-methoxy-4-(quinoline-8-sulfonamido)benzoyl)piperazine-1-carboxylate]
< 100		CC(c1ccccc1F)N1CCN(C(=O)c2ccc(NS(=O)(=O)c3cccc4cccnc34)cc2)[C@H](C)C1 (stereo partly shown) [Compound 183]
	100 to 500	O=C(c1ccc(NS(=O)(=O)c2cccc3cccnc23)cn1)N1CCN(Cc2cc(F)cc(F)c2)CC1 [Compound 414, N-(6-(4-(3,5-difluorobenzyl)piperazine-1-carbonyl)pyridin-3-yl)quinoline-8-sulfonamide]
100 to 500		C[C@H]1CN(CC2CCCCC2)CCN1C(=O)c1ccc(NS(=O)(=O)c2cccc3cccnc23)cc1 [Compound 153, (S)—N-(4-(4-(cyclohexylmethyl)-2-methylpiperazine-1-carbonyl)phenyl)quinoline-8-sulfonamide]
100 to 500		CC[C@H]1CN(Cc2cc(F)cc(F)c2)CCN1C(=O)c1ccc(NS(=O)(=O)c2cccc3cccnc23)cc1 [Compound 136, (S)—N-(4-(4-(3,5-difluorobenzyl)-2-ethylpiperazine-1-carbonyl)phenyl)quinoline-8-sulfonamide]
	100 to 500	O=C(c1ccc(NS(=O)(=O)c2cccc3cccnc23)cc1)N1CCN(C(=O)c2cc(F)cc(F)c2)CC1 [Compound 345, N-(4-(4-(3,5-difluorobenzoyl)piperazine-1-carbonyl)phenyl)quinoline-8-sulfonamide]
< 100		C[C@@H]1CN(C(=O)OCC2CCCO2)CCN1C(=O)c1ccc(NS(=O)(=O)c2cccc3cccnc23)cc1 (stereo partly drawn) [Compound 128, (3R)-(Tetrahydrofuran-2-yl)methyl3-methyl-4-(4-(quinoline-8-sulfonamido)benzoyl)piperazine-1-carboxylate]
	< 100	O=C(c1ccc(NS(=O)(=O)c2cccc3cccnc23)cc1)N1CCN(Cc2ccc(F)cc2)CC1 [Compound 341, N-(4-(4-(4-fluorobenzyl)piperazine-1-carbonyl)phenyl)quinoline-8-sulfonamide]
	< 100	O=C(c1ccc(NS(=O)(=O)c2cccc3cccnc23)cc1)N1CCN(C(=O)c2cncs2)CC1 [Compound 348, N-(4-(4-(thiazole-5-carbonyl)piperazine-1-carbonyl)phenyl)quinoline-8-sulfonamide]
	100 to 500	O=C(c1ccc(NS(=O)(=O)c2cccc3cccnc23)cc1F)N1CCN(CC2CC2)CC1 [Compound 424, N-(4-(4-(cyclopropylmethyl)piperazine-1-carbonyl)-3-fluorophenyl)quinoline-8-sulfonamide]
100 to 500		O=C(c1ccc(NS(=O)(=O)c2cccc3cccnc23)cc1)N1C2CCC1CN(Cc1cc(F)cc(F)c1)C2 [Compound 227, N-(4-(3-(3,5-difluorobenzyl)-3,8-diazabicyclo[3.2.1]octane-8-carbonyl)phenyl)quinoline-8-sulfonamide]
	500 to 1000	O=C(c1ccc(NS(=O)(=O)c2cccc3cccnc23)c(OC(F)(F)F)c1)N1CCN(Cc2ccc(Cl)cc2Cl)CC1 [Compound 374, N-(4-(4-(2,4-dichlorobenzyl)piperazine-1-carbonyl)-2-(trifluoromethoxy)phenyl)quinoline-8-sulfonamide]
500 to 1000		CCOC(=O)N1CCN(C(=O)c2ccc(NS(=O)(=O)c3cccc4cccnc34)cc2)[C@@H](C)C1 [Compound 107, (S)-Ethyl 3-methyl-4-(4-(quinoline-8-sulfonamido)benzoyl)piperazine-1-carboxylate]
	100 to 500	O=C(c1ccc(NS(=O)(=O)c2cccc3cccnc23)c(OC(F)(F)F)c1)N1CCN(Cc2ccc(Cl)cc2)CC1 [Compound 338, N-(4-(4-(4-chlorobenzyl)piperazine-1-carbonyl)-2-(trifluoromethoxy)phenyl)quinoline-8-sulfonamide]
	100 to 500	O=C(c1ccc(NS(=O)(=O)c2cccc3cccnc23)c(OC(F)(F)F)c1)N1CCN(Cc2cc(Cl)cc(Cl)c2)CC1 [Compound 391, N-(4-(4-(3,5-dichlorobenzyl)piperazine-1-carbonyl)-2-(trifluoromethoxy)phenyl)quinoline-8-sulfonamide]
1000 to 20000		CC1CN(C(=O)c2ccccn2)CC(C)N1C(=O)c1ccc(NS(=O)(=O)c2cccc3cccnc23)cc1 (racemic) [Compound 116]
	500 to 1000	COc1ccc(CN2CCN(C(=O)c3ccc(NS(=O)(=O)c4cccc5cccnc45)c(OC(F)(F)F)c3)CC2)c(OC)c1 [Compound 333, N-(4-(4-(2,4-dimethoxybenzyl)piperazine-1-carbonyl)-2-(trifluoromethoxy)phenyl)quinoline-8-sulfonamide]
	100 to 500	O=C(c1ccc(NS(=O)(=O)c2cccc3cccnc23)c(OC(F)(F)F)c1)N1CCN(Cc2cccc(F)c2F)CC1 [Compound 375, N-(4-(4-(2,3-difluorobenzyl)piperazine-1-carbonyl)-2-(trifluoromethoxy)phenyl)quinoline-8-sulfonamide]

AC50 (Table 4) [nM]	AC50 (Table 5) [nM]	Structure (SMILES)
	100 to 500	O=C(c1ccc(NS(=O)(=O)c2cccc3cccnc23)cc1Cl)N1CCN(CC2CCOC2)CC1 (stereo not shown) [Compound 429, N-(3-chloro-4-(4-((tetrahydrofuran-3-yl)methyl)piperazine-1-carbonyl)phenyl)quinoline-8-sulfonamide]
	< 100	CC(c1cc(F)c(F)cc1F)N1CCN(C(=O)c2ccc(NS(=O)(=O)c3cccc4cccnc34)cc2)CC1 (stereo not shown) [Compound 395, N-(4-(4-(1-(2,4,5-trifluorophenyl)ethyl)piperazine-1-carbonyl)phenyl)quinoline-8-sulfonamide]
	< 100	O=C(c1ccc(NS(=O)(=O)c2cccc3cccnc23)cc1F)N1CCN(CC2CCOC2)CC1 (stereo not shown) [Compound 425, N-(3-fluoro-4-(4-((tetrahydrofuran-3-yl)methyl)piperazine-1-carbonyl)phenyl)quinoline-8-sulfonamide]
	1000 to 20000	CC(c1cc(F)c(F)c(F)c1)N1CCN(C(=O)c2ccc(NS(=O)(=O)c3cccc4cccnc34)cc2)CC1 (stereo not shown) [Compound 398, N-(4-(4-(1-(3,4,5-trifluorophenyl)ethyl)piperazine-1-carbonyl)phenyl)quinoline-8-sulfonamide]
	100 to 500	CC(C)(C(=O)N1CCN(C(=O)c2ccc(NS(=O)(=O)c3cccc4cccnc34)c(OC(F)(F)F)c2)CC1)c1ccc(F)cc1 [Compound 362]
	< 100	[2H]C([2H])(c1cc(F)cc(F)c1)N1CCN(C(=O)c2ccc(NS(=O)(=O)c3cccc4cccnc34)cc2)CC1 [Compound 449, N-(4-(4-(3,5-difluorobenzyl)piperazine-1-carbonyl)phenyl)quinoline-8-sulfonamide-(D2)]
	< 100	O=C(c1ccc(NS(=O)(=O)c2cccc3cccnc23)cc1)N1CCN(C[C@H]2CCOC2)CC1 [Compound 444, (R)— and (S)—N-(4-(4-((tetrahydrofuran-3-yl)methyl)piperazine-1-carbonyl)phenyl)quinoline-8-sulfonamide]
	500 to 1000	COc1cccc(OC)c1CN1CCN(C(=O)c2ccc(NS(=O)(=O)c3cccc4cccnc34)c(OC(F)(F)F)c2)CC1 [Compound 392, N-(4-(4-(2,6-dimethoxybenzyl)piperazine-1-carbonyl)-2-(trifluoromethoxy)phenyl)quinoline-8-sulfonamide]
	100 to 500	O=C(c1ccc(NS(=O)(=O)c2cccc3cccnc23)c(OC(F)(F)F)c1)N1CCN(CCc2ccccc2)CC1 [Compound 303, N-(4-(4-phenethylpiperazine-1-carbonyl)-2-(trifluoromethoxy)phenyl)quinoline-8-sulfonamide]
	100 to 500	COc1cc(C(=O)N2CCN(C(=O)c3cccc(F)c3F)CC2)ccc1NS(=O)(=O)c1cccc2cccnc12 [Compound 318, N-(4-(4-(2,3-difluorobenzoyl)piperazine-1-carbonyl)-2-methoxyphenyl)quinoline-8-sulfonamide]
< 100		C[C@@H]1CN(CC2CCCCC2)CCN1C(=O)c1ccc(NS(=O)(=O)c2cccc3cccnc23)cc1 [Compound 151, (R)—N-(4-(4-(cyclohexylmethyl)-2-methylpiperazine-1-carbonyl)phenyl)quinoline-8-sulfonamide]
100 to 500		CC(c1cc(F)c(F)cc1F)N1CCN(C(=O)c2ccc(NS(=O)(=O)c3cccc4cccnc34)cc2)[C@H](C)C1 (stereo partly shown) [Compound 168]
	100 to 500	O=C(c1ccc(NS(=O)(=O)c2cccc3cccnc23)c(OC(F)(F)F)c1)N1CCN(Cc2ccc(F)c(Cl)c2)CC1 [Compound 376, N-(4-(4-(3-chloro-4-fluorobenzyl)piperazine-1-carbonyl)-2-(trifluoromethoxy)phenyl)quinoline-8-sulfonamide]
	1000 to 20000	O=C(c1ccc(NS(=O)(=O)c2cccc3cccnc23)c(OC(F)(F)F)c1)N1CCN(Cc2ccc(F)cc2)CC1 [Compound 337, N-(4-(4-(4-fluorobenzyl)piperazine-1-carbonyl)-2-(trifluoromethoxy)phenyl)quinoline-8-sulfonamide]
	100 to 500	COc1cc(C(=O)N2CCN(C(=O)c3cscn3)CC2)ccc1NS(=O)(=O)c1cccc2cccnc12 [Compound 322, N-(2-methoxy-4-(4-(thiazole-4-carbonyl)piperazine-1-carbonyl)phenyl)quinoline-8-sulfonamide]
100 to 500		C[C@H]1CN(C[C@@H]2CCOC2)CCN1C(=O)c1ccc(NS(=O)(=O)c2cccc3cccnc23)cc1 [Compound 209]
100 to 500		C[C@H]1CN(CC2CC2)CCN1C(=O)c1ccc(NS(=O)(=O)c2cccc3cccnc23)cc1Cl [Compound 178]
	100 to 500	COc1cc(C(=O)N2CCN(C(=O)c3cccc(OC)c3F)CC2)ccc1NS(=O)(=O)c1cccc2cccnc12 [Compound 320, N-(4-(4-(2-fluoro-3-methoxybenzoyl)piperazine-1-carbonyl)-2-methoxyphenyl)quinoline-8-sulfonamide]
